Assay results reported in patent US12018021B2 (UCB Biopharma SRL, priority 2018, dated 2024).

What follows are molecules tested against IgE-Tb / FcεRIα-Y131A-AF488 (Homo sapiens, UniProt P01854) (assay: IgE-Tb / FcεRIα-Y131A-AF488 FRET assay (protocol for examples 1 to 233)). Conditions: examples 1 to 233: 5 nM IgE-Tb, 25 nM FcεRIα-Y131A-AF488, incubated 2 hours at room temperature; read-out: Y131A FRET IC50 range.
Assay type: binding
Experimental: For examples 1 to 233, the assay was conducted according to the following: Each assay reaction was conducted in a volume of 25 μl in a 384-well half-volume plate. 10 point compound serial dilutions (3-fold) were generated in DMSO at a concentration of ×50 that of the final assay concentration (FAC). Compound solutions were then prepared by IgE-Tb diluting 10-fold in assay buffer. For the assay, 5 μl of diluted compound was added to 10 μl of, followed by addition of 10 μl FcεRIα-Y131A-AF488. FRET reagents FACs were 5 nM IgE-Tb, 25 nM FcεRIα-Y131A-AF488. Usually the top FAC of compound in the assay was 10 μM. The final DMSO concentration was 2%. The minimum signal (MIN) was measured by adding 5l unlabelled FcεRIα at 1 μM (FAC=200 nM) to the FRET reagents. The maximum FRET signal (MAX) was measured in wells containing FRET reagents but no compound. The assay was incubated for 2 hours at room temperature, protected from light and evaporation, and with gentle agitation.
Measurement of FRET for each well was carried out by exciting at 330 nm and measuring emission at 495/520 nm using an Envision plate reader (Perkin Elmer). FRET ratio was calculated as follows: Emission at 520/Emission at 495×1000.
The FRET ratio was used for the data analysis.
Z′ was calculated as follows (σ=standard deviation and μ=mean): 1−((3×σMAX)+(3×σMIN))/(μMAX−μMIN)
Z′ above 0.5 was considered a good assay.
Background signal (MIN) was subtracted from all wells. Using the background subtracted values, the percent inhibition by compound in each test-well was calculated as follows: 100−Test-well FRET ratio/MAX FRET ratio×100.
Percent inhibition was plotted against compound concentration. IC50 values for each compound were determined using four parameter logistic fit model using the XLFIT5 software package.

Sequence of IgE-Tb / FcεRIα-Y131A-AF488 (P01854 1-427 limits assumed, stated change not applied): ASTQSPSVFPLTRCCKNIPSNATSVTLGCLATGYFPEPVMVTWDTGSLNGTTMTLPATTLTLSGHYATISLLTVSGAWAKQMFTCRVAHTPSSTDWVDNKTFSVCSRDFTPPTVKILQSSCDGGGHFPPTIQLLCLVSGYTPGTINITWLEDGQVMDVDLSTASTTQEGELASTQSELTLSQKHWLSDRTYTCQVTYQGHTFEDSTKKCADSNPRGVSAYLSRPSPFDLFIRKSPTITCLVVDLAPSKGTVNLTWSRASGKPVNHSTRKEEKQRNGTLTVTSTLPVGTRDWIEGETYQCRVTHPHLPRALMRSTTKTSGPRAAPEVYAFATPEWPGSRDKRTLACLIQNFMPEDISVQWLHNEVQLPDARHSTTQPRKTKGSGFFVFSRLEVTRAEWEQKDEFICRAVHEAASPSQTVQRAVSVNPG

SMILES	IC50
CC(C)CNS(=O)(=O)c1c(NC(=O)C2CC2)sc2c1CCCC2 [Example 17, N-[3-(Isobutylsulfamoyl)-4,5,6,7-tetrahydrobenzothiophen-2-yl]cyclopropanecarboxamide]	< 1000 nM
CC(C)(O)CNS(=O)(=O)c1c(NC(=O)C2CC2)sc2c1CCCC2 [Example 18, N-[3-[(2-Hydroxy-2-methyl-propyl)sulfamoyl]-4,5,6,7-tetrahydrobenzothiophen-2-yl]cyclopropanecarboxamide]	1000 to 10000 nM
CC(O)CNS(=O)(=O)c1c(NC(=O)C2CC2)sc2c1CCCC2 (centres unmarked) [Example 19, N-[3-(2-Hydroxypropylsulfamoyl)-4,5,6,7-tetrahydrobenzothiophen-2-yl]cyclopropanecarboxamide]	< 1000 nM
O=C(Nc1sc2c(c1S(=O)(=O)N1CCCC1)CCCC2)C1CC1 [Example 20, N-(3-Pyrrolidin-1-ylsulfonyl-4,5,6,7-tetrahydrobenzothiophen-2-yl)cyclopropanecarboxamide]	1000 to 10000 nM
O=C(Nc1sc2c(c1S(=O)(=O)NC1CC(F)C1)CCCC2)C1CC1 (centres unmarked) [Example 21, N-[3-[(3-Fluorocyclobutyl)sulfamoyl]-4,5,6,7-tetrahydrobenzothiophen-2-yl]cyclopropanecarboxamide]	< 1000 nM
CCCCS(=O)(=O)c1c(NC(=O)C2CC2)sc2c1CCCC2 [Example 22, N-(3-Butylsulfonyl-4,5,6,7-tetrahydrobenzothiophen-2-yl)cyclopropanecarboxamide]	1000 to 10000 nM
CC(C)CNS(=O)(=O)c1c(NC(=O)C2CC2)sc2c1CC(Nc1ncccn1)CC2 (centres unmarked) [Example 23, N-[3-(Isobutylsulfamoyl)-5-(pyrimidin-2-ylamino)-4,5,6,7-tetrahydrobenzothiophen-2-yl]cyclopropanecarboxamide]	< 1000 nM
CC(C)CNS(=O)(=O)c1c(NC(=O)C2CC2)sc2c1CC(NS(C)(=O)=O)CC2 (centres unmarked) [Example 24, N-[3-(Isobutylsulfamoyl)-5-(methanesulfonamido)-4,5,6,7-tetrahydrobenzothiophen-2-yl]cyclopropanecarboxamide]	< 1000 nM
CCCNS(=O)(=O)c1c(NC(=O)C2CC2)sc2c1CC(NC(=S)Nc1ccc(OC)cc1)CC2 (centres unmarked) [Example 25, N-[5-[(4-Methoxyphenyl)carbamothioylamino]-3-(propylsulfamoyl)-4,5,6,7-tetrahydrobenzothiophen-2-yl]cyclopropanecarboxamide]	< 1000 nM
CCCNS(=O)(=O)c1c(NC(=O)C2CC2)sc2c1CC(NC(=O)Nc1ccc(OC)cc1)CC2 (centres unmarked) [Example 26, N-[5-[(4-Methoxyphenyl)carbamoylamino]-3-(propylsulfamoyl)-4,5,6,7-tetrahydrobenzothiophen-2-yl]cyclopropanecarboxamide]	< 1000 nM
CCNC(=O)C1CCCc2c1sc(NC(=O)C1CC1)c2S(=O)(=O)NCC(C)C (centres unmarked) [Example 27, 2-(Cyclopropanecarbonylamino)-N-ethyl-3-(isobutylsulfamoyl)-4,5,6,7-tetrahydrobenzothiophene-7-carboxamide]	1000 to 10000 nM
CCNC(=O)C1CCc2sc(NC(=O)C3CC3)c(S(=O)(=O)NCC(C)C)c2C1 (centres unmarked) [Example 28, 2-(Cyclopropanecarbonylamino)-N-ethyl-3-(isobutylsulfamoyl)-4,5,6,7-tetrahydrobenzothiophene-5-carboxamide]	< 1000 nM
CCCC[S+]([O-])c1c(NC(=O)C2CC2)sc2c1CCCC2 (centres unmarked) [Example 29, N-(3-Butylsulfinyl-4,5,6,7-tetrahydrobenzothiophen-2-yl)cyclopropanecarboxamide]	1000 to 10000 nM
Cc1ccc(NC(=NC#N)NC2CCc3sc(NC(=O)C4CC4)c(S(=O)(=O)NCC4CC4)c3C2)cc1 (centres unmarked) [Example 30, N-[5-[[N′-Cyano-N-(p-tolyl)carbamimidoyl]amino]-3-(cyclopropylmethylsulfamoyl)-4,5,6,7-tetrahydrobenzothiophen-2-yl]cyclopropanecarboxamide]	< 1000 nM
